From patent US20260049089A1, “KRAS INHIBITOR COMPOUND” (SHANGHAI APEIRON THERAPEUTICS COMPANY LIMITED, priority 2022, published 2026)
Where “and” joins values, the source holds several entries; their conditions need not be identical. Equal entries are not always repeated. Where two headings read alike, the source gives them in different places.

Tests used:
Type in all cases: cell-based
[1] = tested on: pERK in AGS cells; test: ERK phosphorylation cell assay, AGS; conditions: 3 hours compound incubation, read-out: pERK AGS_IC50
Method: (§1) • Day 1: AGS cells were seeded into a 384-well cell culture plate and incubated overnight at 37° C. with 5% CO2 in a cell culture incubator. • Day 2: Compounds were added to the plate using an Echo550 liquid handler, followed by incubation at 37° C. with 5% CO2 in a cell culture incubator for 3 hours. Subsequently, the cells were fixed with paraformaldehyde, permeabilized with methanol, and blocked with blocking buffer. A primary antibody mixture (rabbit anti-pERK, mouse anti-GAPDH) was added, and the plate was incubated overnight at 4° C. • Day 3: The primary antibodies were removed, and a secondary antibody mixture (goat anti-rabbit 800CW, goat anti-mouse 680RD) was added. The plate was incubated at room temperature in the dark. After three washes with PBST, the plate was inverted and centrifuged for 1 minute. Fluorescence signal values were read using an Odyssey CLx imaging system.
(§2) [formula] • Negative control: DMSO • Positive control: 10 μM Reference • Fitted using XLFit 5.0 with the following parameters:
(§3) [formula] • X: Log of compound concentration • Y: Mean relative expression levels of p-ERK across replicates

[2] = tested on: pERK in AsPC-1 cells; test: ERK phosphorylation cell assay, AsPC-1; conditions: read-out: pERK AsPC-1_IC50
Method: [Worded in the source for another cell line; this cell line is reported under the same test.] as §1, §2, §3

[3] = tested on: AGS cells; test: 3D cell proliferation assay (CellTiter-Glo 3D), AGS; conditions: 5 days, read-out: 3D Proliferation Inhibition AGS_IC50
Method: (§4) Using a nanoliter liquid handling system (LABCYTE, P-0200), the diluted test compounds were added to a 384-well low-adsorption cell culture plate. Cells were seeded into the wells, and the plate was placed in an incubator at 37° C. with 5% CO2. After co-incubating the compounds and cells for 5 days, CellTiter-Glo® 3D reagent was added. Luminescence values were measured using an EnVision Multilabel Plate Reader (luminescence is proportional to the ATP content in the system, and ATP content directly reflects the number of viable cells). Finally, the IC50 values (half-maximal inhibitory concentrations) of the compounds were determined using non-linear fitting equations in XLFit software with the following parameters: […]
(§5) X: Logarithm of compound concentration • Y: Inhibition rate (%)
(§6) [formula] • Negative control: DMSO • Positive control: Medium only

[4] = tested on: AsPC-1 cells; test: 3D cell proliferation assay (CellTiter-Glo 3D), AsPC-1; conditions: 5 days, read-out: 3D Proliferation Inhibition AsPC-1_IC50
Method: as §4, §5, §6

[5] = Homo sapiens, ASPC1, AsPC-1 cells

| IC50 [1] | IC50 ([2]; AsPC-1 cells) | IC50 [3] | IC50 [4] | IC50 ([3]; Homo sapiens, AGS, 120 h) [nM] | IC50 ([4]; Homo sapiens, ASPC1, 120 h) [nM] | IC50 ([1]; Homo sapiens, AGS, 3 h) [nM] | Compound | further results |
| --- | --- | --- | --- | --- | --- | --- | --- | --- |
| 4.6 nM | 15 nM | 22 nM and 24 nM | 60 nM and 55 nM |  |  |  | 3,15-difluoro-13-((2R,7aS)-2-fluorotetrahydro-1H-pyrazin-7a(5H)-yl)methoxy)-11-((R)-3-hydroxy-3-methylpiperidin-1-yl)-4,5,8,9-tetrahydro-7H-naphtho[1′,8′:7,8,9][1]oxa[4]azacycloundeca[5,6-g]quinazoline-17-ol [Example 43A] |  |
| 30 nM |  | 127 nM | 202 nM |  |  |  | CN1CCCCCc2c(F)ccc3cc(O)cc(c23)-c2c1cc1c(N3CCC[C@@](C)(O)C3)nc(OC[C@@]34CCCN3C[C@H](F)C4)nc1c2F (single isomer, unassigned) [Example 6A] |  |
| 450 nM |  | 1040 nM | 1370 nM |  |  |  | CN1CCCCCc2c(F)ccc3cc(O)cc(c23)-c2c1cc1c(N3CCC[C@@](C)(O)C3)nc(OC[C@@]34CCCN3C[C@H](F)C4)nc1c2F (single isomer, unassigned) [Example 6B] |  |
| 93 nM and 99 nM | 938 nM and 721 nM |  |  | 226 | 2630 |  | C[C@@]1(O)CCCN(c2nc(OCC34CCCN3CCC4)nc3c(F)c4c(cc23)NCCCCCc2c(F)ccc3cc(O)cc-4c23)C1 (single isomer, unassigned) [Example 21A] |  |
| 26 nM | 85 nM | 90 nM | 166 nM |  |  |  | C=C1CN2CCCC2(COc2nc(N3CCC[C@@](C)(O)C3)c3cc4c(c(F)c3n2)-c2cc(O)cc3ccc(F)c(c23)CCCCCN4C)C1 (single isomer, unassigned) [Example 22A] |  |
| 430 nM | 898 nM | 553 nM | 1790 nM |  |  |  | C=C1CN2CCCC2(COc2nc(N3CCC[C@@](C)(O)C3)c3cc4c(c(F)c3n2)-c2cc(O)cc3ccc(F)c(c23)CCCCCN4C)C1 (single isomer, unassigned) [Example 22B] |  |
| 91 nM | 352 nM |  |  | 508 | 847 |  | C[C@@]1(O)CCCN(c2nc(OCC34CCCN3C[C@]3(C4)CC3(F)F)nc3c(F)c4c(cc23)NCCCCCc2c(F)ccc3cc(O)cc-4c23)C1 (single isomer, unassigned) [Example 24A] |  |
| 194 nM | 776 nM | 430 nM | 1760 nM |  |  |  | CN1CCC[C@H]1COc1nc(N2CCC[C@@](C)(O)C2)c2cc3c(c(F)c2n1)-c1cc(O)cc2ccc(F)c(c12)CCCCCN3 (single isomer, unassigned) [Example 28A] |  |
| > 10000 nM | > 10000 nM | 3360 nM | 3550 nM |  |  |  | CN1CCC[C@H]1COc1nc(N2CCC[C@@](C)(O)C2)c2cc3c(c(F)c2n1)-c1cc(O)cc2ccc(F)c(c12)CCCCCN3 (single isomer, unassigned) [Example 28B] |  |
|  |  |  | 1490 nM | 2310 |  | > 10000 | C[C@@]1(O)CCCN(c2nc(OCC3(N4CCOCC4)CC3)nc3c(F)c4c(cc23)NCCCCCc2c(F)ccc3cc(O)cc-4c23)C1 (single isomer, unassigned) [Example 33A] | IC50 [2, 5]: > 10000 nM |
| > 10000 nM | > 10000 nM | 3080 nM | 4670 nM |  |  |  | C[C@@]1(O)CCCN(c2nc(OCC3(N4CCOCC4)CC3)nc3c(F)c4c(cc23)NCCCCCc2c(F)ccc3cc(O)cc-4c23)C1 (single isomer, unassigned) [Example 33B] |  |
|  |  |  |  | 2290 | 2860 | 3470 | C[C@@]1(O)CCCN(c2nc(OCC34CCCN3CCC4)nc3c(F)c4c(cc23)NCCCCCc2c(F)ccc3cccc-4c23)C1 [Example 7, (R)-1-(3,15-Difluoro-13-((tetrahydro-1H-pyrazin-7a(5H)-yl)methoxy)-4,5,6,7,8,9-hexahydronaphtho[1′,8′:4,5,6]azecino[2,3-g]quinazolin-11-yl)-3-methylpiperidin-3-ol] |  |
|  |  |  |  | 112 | 336 |  | C=C1CN2CCCC2(COc2nc(N3CCC[C@@](C)(O)C3)c3cc4c(c(F)c3n2)-c2cc(O)cc3ccc(F)c(c23)CCCCCN4)C1 (stereo partly drawn) [Example 25] |  |
|  |  |  |  |  |  | 307 | [2H]C([2H])([2H])N1C(=O)CCCCc2c(F)ccc3cc(O)cc(c23)-c2c1cc1c(N3CCC[C@@](C)(O)C3)nc(OC[C@@]34CCCN3C[C@H](F)C4)nc1c2F [Example 41, 3,15-Difluoro-13-(((2R,7aS)-2-fluoro-tetrahydro-1H-pyrazin-7a(5H)-yl)methoxy)-17-hydroxy-11-((R)-3-hydroxy-3-methylpiperidin-1-yl)-9-(trideuteromethyl)-4,5,6,7-tetrahydronaphtho[1′,8′:4,5,6][1]azacycloundecino[2,3-g]quinazolin-8(9H)-one] | IC50 [2, 5]: 2790 nM |
|  |  |  |  | 3210 | 4090 | 3390 | C=C1CN2CCCC2(COc2nc(N3CCC[C@@](C)(O)C3)c3cc4c(c(F)c3n2)-c2cc(O)cc3ccc(F)c(c23)CCCCCN4S(C)(=O)=O)C1 (stereo partly drawn) [Example 45, 3,15-difluoro-11-((R)-3-hydroxy-3-methylpiperidin-1-yl)-13-((2-methylenetetrahydro-1H-pyrazin-7a(5H)-yl)methoxy)-9-(methylsulfonyl)-4,5,6,7,8,9-hexahydronaphtho[1′,8′:4,5,6][1]azacycloundecano[2,3-g]quinazolin-17-ol] |  |
|  |  |  |  |  |  | 2.4 | C=C1CN2CCC[C@@]2(COc2nc(N3CCC[C@@](C)(O)C3)c3cc4c(c(F)c3n2)-c2cc(OC(=O)CCCCCCCCC)cc3ccc(F)c(c23)CCOCCN4C)C1 [Example 51, 3,15-difluoro-11-((R)-3-hydroxy-3-methylpiperidin-1-yl)-9-methyl-13-(((S)-2-methylenetetrahydro-1H-pyrazin-7a(5H)-yl)methoxy)-4,5,8,9-tetrahydro-7H-naphtho[1′,8′:7,8,9111]oxa[4]azacycloundeca[5,6-g]quinazoline-17-yl decanoate] | IC50 [2, 5]: 6.1 nM |
|  |  |  |  |  |  | 2180 | C=C1CN2CCC[C@@]2(COc2nc(N3CCC[C@@](C)(O)C3)c3cc4c(c(F)c3n2)-c2cccc3ccc(F)c(c23)CCOCCN4)C1 [Example 53, (R)-1-(3,15-difluoro-13-(((S)-2-methylenetetrahydro-1H-pyrazin-7a(5H)-yl)methoxy)-4,5,8,9-tetrahydro-7H-naphtho[1′,8′:7,8,9][1]oxa[4]azacycloundeca[5,6-g]quinazoline-11-yl)-3-methylpiperidin-3-ol] | IC50 [2, 5]: 3300 nM |

| Compound | IC50 [1] | IC50 ([2]; AsPC-1 cells) | IC50 [3] | IC50 [4] | IC50 ([3]; Homo sapiens, AGS, 120 h) [nM] | IC50 ([4]; Homo sapiens, ASPC1, 120 h) [nM] | IC50 ([1]; Homo sapiens, AGS, 3 h) [nM] | further results |
| --- | --- | --- | --- | --- | --- | --- | --- | --- |
| C=C1CN2CCC[C@@]2(COc2nc(N3CCC[C@@](C)(O)C3)c3cc4c(c(F)c3n2)-c2cc(O)cc3ccc(F)c(c23)CCOCCN4)C1 (single isomer, unassigned) [Example 42A] | 26 nM | 134 nM | 125 nM | 456 nM |  |  |  |  |
| C=C1CN2CCC[C@@]2(COc2nc(N3CCC[C@@](C)(O)C3)c3cc4c(c(F)c3n2)-c2cc(O)cc3ccc(F)c(c23)CCOCCN4)C1 (single isomer, unassigned) [Example 42B] | 12 nM | 74 nM | 61 nM | 341 nM |  |  |  |  |
| O=C1CCCCc2c(F)ccc3cc(O)cc(c23)-c2c(cc3c(N4CC5CCC(C4)N5)nc(OC[C@@]45CCCN4C[C@H](F)C5)nc3c2F)N1 [Example 4] |  |  |  |  | 848 | 4870 | 331 |  |
| C[C@@]1(O)CCCN(c2nc(OCC34CCCN3C3CC3C4)nc3c(F)c4c(cc23)NCCCCCc2c(F)ccc3cc(O)cc-4c23)C1 (stereo partly drawn) [Example 37, 3,15-Difluoro-13-((hexahydrocyclopropano[b]pyrrolizin-5a(3H)-yl)methoxy)-11-((R)-3-hydroxy-3-methylpiperidin-1-yl)-4,5,6,7,8,9-hexahydro-naphtho[1′,8′:4,5,6][1]azacycloundecino[2,3-g]quinazoline-17-ol] |  |  |  |  |  |  | 546 | IC50 [2, 5]: 3510 nM |
| C=C1CN2CCCC2(COc2nc(N3CCC[C@@](C)(O)C3)c3cc4c(c(F)c3n2)-c2cc(O)cc3ccc(F)c(c23)CCCCCN4C(C)=O)C1 (stereo partly drawn) [Example 44, 1-(3,15-Difluoro-17-hydroxy-11-((R)-3-hydroxy-3-methylpiperidin-1-yl)-13-((2-methylene-tetrahydro-1H-pyrazin-7a(5H)-yl)methoxy)-5,6,7,8-tetrahydronaphtho[1′,8′:4,5,6][1]azacycloundecino[2,3-g]quinazolin-9(4H)-yl)ethan-1-one] |  |  |  |  |  | 3900 |  | IC50 ([1]; Homo sapiens): 490 nM; IC50 ([3]; Homo sapiens, 120 h): 1860 nM |
